Experimental data: patent publication US20250243160A1, “INDOLE DERIVATIVES FOR TARGETING AUTOPHAGY” (Automera PTE. LTD, priority 2024, published 2025)

Test system: p62 puncta
Test: p62 puncta immunocytochemistry imaging in HeLa cells
Type: cell-based
Conditions: 24 hours treatment, relative to vehicle control (DMSO)
Method: HeLa cells were seeded in coated 96-well plates (10,000 cells) and allowed to adhere overnight. After 24 hours of treatment with either vehicle (DMSO) or test compounds, the media was discarded, and cells were rinsed with ice-cold 1×PBS before fixation by 4% formaldehyde or paraformaldehyde for 20 min. Cells were then washed with 1×PBS and permeabilized with 0.1% Triton X-100 in PBS for 20 min and blocked with Blocking Buffer in PBS for 1 hour. The cells were incubated thereafter for 1 hour with anti-p62 primary antibody in Blocking Buffer, followed by incubation with secondary antibody for 1 hour. DAPI dye was used to visualize nuclei of fixed cells. The blocking buffer used were 5% Fetal Bovine Serum (FBS, ThermoFIsher Scientific, 10270106) and Li-cor Intercept (PBS) Blocking Buffer (Li-cor, 927-70001). The primary antibody used was mouse anti-p62 primary antibody (Novus Biologicals, H00008878-M01). The secondary antibodies used were goat anti-mouse Alexa Fluor Plus 488 secondary antibody (Invitrogen, GOXMS) and goat anti-mouse Alexa Fluor 488 secondary antibody (Invitrogen, A-11029). The DAPI dyes used were DAPI dye (Invitrogen, 62248) and DAPI dye (Invitrogen, D1306).
For the EVOS M7000 System, cells were imaged on the EVOS M7000 microscope using a 20× air objective (Nikon, N.A 0.45). DAPI and p62 channels were illuminated with LED light cubes using integrated hard-coated filter sets for DAPI (357/447 nm) and GFP (470/525 nm) respectively. Images were analysed for p62 puncta count on the Celeste 6.0 software.
For the Operetta CLS System, cells were imaged on the Operetta CLS using a 63× water objective on the DAPI and Alexa 488 channels. Images were analysed for p62 puncta count on the Harmony 5.1 software.
HeLa cells were treated with compounds for 24 hours to evaluate the effect of these compounds on p62 puncta activity. The resulting changes in levels of p62 puncta were assessed by imaging, either on the EVOS M7000 or Operetta CLS systems as described in experimental procedures. The fold change of p62 puncta levels induced by compound treatment relative to vehicle control (DMSO) was determined and summarized in Table 10.

Row | Compound | p62 puncta (fold change of p62 puncta levels)
1 | C#CCCN1CCC(COCCNCc2cc(F)cc3c2ccn3Cc2ccc(Cl)cc2)CC1 [Compound 120] | ++ (>2-fold change in p62 puncta levels relative to DMSO control)
2 | CC(C)(C)OC(=O)CCOCCNCc1cc(F)cc2c1ccn2Cc1ccc(Cl)cc1 [Compound 142] | + (<2-fold change in p62 puncta levels relative to DMSO control)
3 | CNCCOCCOCCNCc1cc(F)cc2c1ccn2Cc1ccc(Cl)cc1 [Compound 89] | ++ (>2-fold change in p62 puncta levels relative to DMSO control)
4 | COC(=O)c1ccc(COCCNCc2cc(F)cc3c2ccn3Cc2ccc(Cl)cc2)cc1 [Compound 144] | + (<2-fold change in p62 puncta levels relative to DMSO control)
5 | O=C(Cn1ccc2c(CNCCO)cc(F)cc21)c1ccc(F)cc1 [Compound 83, 2-(6-fluoro-4-(((2-hydroxyethyl)amino)methyl)-1H-indol-1-yl)-1-(4-fluorophenyl)ethan-1-one] | ++ (>2-fold change in p62 puncta levels relative to DMSO control)
6 | COC(=O)C1(COCCNCc2cc(F)cc3c2ccn3Cc2ccc(Cl)cc2)COC1 [Compound 155] | + (<2-fold change in p62 puncta levels relative to DMSO control)
7 | COC1CN(Cc2cncc3c2ccn3Cc2ccc(F)cc2)C1 [Compound 114] | + (<2-fold change in p62 puncta levels relative to DMSO control)
8 | Fc1cc(CNCCOCCOCCOCCCOc2ccccc2)c2ccn(Cc3ccc(Cl)cc3)c2c1 [Compound 94] | ++ (>2-fold change in p62 puncta levels relative to DMSO control)
9 | C#CCCOCCOCCOCCNCc1cccc2c1ccn2CCc1cccnc1 [Compound 126] | + (<2-fold change in p62 puncta levels relative to DMSO control)
10 | CC(C)(C)OC(=O)COCCCOCCNCc1cc(F)cc2c1ccn2Cc1ccc(Cl)cc1 [Compound 139] | + (<2-fold change in p62 puncta levels relative to DMSO control)
11 | CC(C)(C)OC(=O)Nc1ccc(COCCNCc2cc(F)cc3c2ccn3Cc2ccc(Cl)cc2)cc1 [Compound 160] | ++ (>2-fold change in p62 puncta levels relative to DMSO control)
12 | CC(C)(C)OC(=O)Nc1cccc(COCCNCc2cc(F)cc3c2ccn3Cc2ccc(Cl)cc2)c1 [Compound 162] | ++ (>2-fold change in p62 puncta levels relative to DMSO control)
13 | OCCNCc1ccnc2c1ccn2Cc1ccc(Cl)cc1 [Compound 111] | + (<2-fold change in p62 puncta levels relative to DMSO control)
14 | C#CCOCCOCCNCc1cc(F)cc2c1ccn2Cc1ccc(Cl)cc1 [Compound 140] | ++ (>2-fold change in p62 puncta levels relative to DMSO control)
15 | C#CCCOCCNCc1cc(F)cc2c1ccn2Cc1ccc(F)cc1 [Compound 125] | + (<2-fold change in p62 puncta levels relative to DMSO control)
16 | CC(C)(C)OC(=O)NCCOCCNCc1cc(F)cc2c1ccn2Cc1ccc(Cl)cc1 [Compound 133] | ++ (>2-fold change in p62 puncta levels relative to DMSO control)
17 | CCOC(=O)C1CCN(C(=O)COCCNCc2cc(F)cc3c2ccn3Cc2ccc(Cl)cc2)CC1 [Compound 152] | + (<2-fold change in p62 puncta levels relative to DMSO control)
18 | COC(=O)c1ccc(N2CCC(COCCNCc3cc(F)cc4c3ccn4Cc3ccc(Cl)cc3)CC2)cc1 [Compound 171] | ++ (>2-fold change in p62 puncta levels relative to DMSO control)
19 | C#CCCCCCCCCOCCNCc1cc(F)cc2c1ccn2Cc1ccc(Cl)cc1 [Compound 170] | ++ (>2-fold change in p62 puncta levels relative to DMSO control)
20 | OCCNCc1cncc2c1ccn2Cc1ccc(F)cc1 [Compound 113] | + (<2-fold change in p62 puncta levels relative to DMSO control)
21 | Cc1cn(Cc2ccc(F)cc2)c2cc(F)cc(CNCCO)c12 [Compound 81] | ++ (>2-fold change in p62 puncta levels relative to DMSO control)

Row | Compound | p62 puncta (fold change of p62 puncta levels)
22 | CC(C)(C)OC(=O)NCCOCCOCCNCc1cc(F)cc2c1ccn2Cc1ccc(Cl)cc1 [Compound 135] | ++ (>2-fold change in p62 puncta levels relative to DMSO control)
23 | OCCNCc1cc2ccn(Cc3ccc(F)cc3)c2cc1F [Compound 112, 2-(((6-fluoro-1-(4-fluorobenzyl)-1H-indol-5-yl)methyl)amino)ethan-1-ol] | ++ (>2-fold change in p62 puncta levels relative to DMSO control)
24 | C#CCCOCCOCCNCc1cc(F)cc2c1ccn2Cc1ccc(Cl)cc1 [Compound 86] | ++ (>2-fold change in p62 puncta levels relative to DMSO control)
25 | CC(C)(C)OC(=O)COCCNCc1cc(F)cc2c1ccn2Cc1ccc(Cl)cc1 [Compound 141] | + (<2-fold change in p62 puncta levels relative to DMSO control)
26 | CC(C)(C)OC(=O)NCCCCCOCCNCc1cc(F)cc2c1ccn2Cc1ccc(Cl)cc1 [Compound 157] | ++ (>2-fold change in p62 puncta levels relative to DMSO control)
27 | CC(C)(C)OC(=O)NCC1CC(COCCNCc2cc(F)cc3c2ccn3Cc2ccc(Cl)cc2)C1 (stereo not drawn) [Compound 172] | ++ (>2-fold change in p62 puncta levels relative to DMSO control)
28 | CC(C)(C)OC(=O)N1CC(COCCNCc2cc(F)cc3c2ccn3Cc2ccc(Cl)cc2)C1 [Compound 164] | ++ (>2-fold change in p62 puncta levels relative to DMSO control)
29 | CC(C)(C)OC(=O)N1CCC(OCCOCCNCc2cc(F)cc3c2ccn3Cc2ccc(Cl)cc2)CC1 [Compound 93] | ++ (>2-fold change in p62 puncta levels relative to DMSO control)
30 | CC(C)(C)OC(=O)NCCCOCCNCc1cc(F)cc2c1ccn2Cc1ccc(Cl)cc1 [Compound 163] | ++ (>2-fold change in p62 puncta levels relative to DMSO control)
31 | CC(C)(C)OC(=O)N1CCC(OCCNCc2cc(F)cc3c2ccn3Cc2ccc(Cl)cc2)C1 (stereo not drawn) [Compound 166] | ++ (>2-fold change in p62 puncta levels relative to DMSO control)
32 | CC(C)NCC(O)COc1ccc2c(ccn2Cc2ccccc2)c1 (stereo not drawn) [Compound 39] | ++ (>2-fold change in p62 puncta levels relative to DMSO control)
33 | C#CCCN1CCN(CCOCCNCc2cc(F)cc3c2ccn3Cc2ccc(Cl)cc2)CC1 [Compound 121] | ++ (>2-fold change in p62 puncta levels relative to DMSO control)
34 | C#CCCOCCOCCOCCNCc1ccc(Cl)c2c1ccn2Cc1ccccc1 [Compound 122] | ++ (>2-fold change in p62 puncta levels relative to DMSO control)
35 | CC(C)(C)OC(=O)CCCCCOCCNCc1cc(F)cc2c1ccn2Cc1ccc(Cl)cc1 [Compound 150] | + (<2-fold change in p62 puncta levels relative to DMSO control)
36 | COC(=O)CCOCCOCCOCCNCc1cc(F)cc2c1ccn2Cc1ccc(Cl)cc1 [Compound 169] | + (<2-fold change in p62 puncta levels relative to DMSO control)
37 | CC(C)(C)OC(=O)NC[C@H]1CC[C@H](COCCNCc2cc(F)cc3c2ccn3Cc2ccc(Cl)cc2)CC1 [Compound 175] | ++ (>2-fold change in p62 puncta levels relative to DMSO control)
38 | OCCNCc1ccc(Cl)c2c1ccn2Cc1ccc(F)cc1 [Compound 80] | ++ (>2-fold change in p62 puncta levels relative to DMSO control)
39 | COCCNCc1cc(F)cc2c1ccn2Cc1ccc(Cl)cc1 [Compound 108] | ++ (>2-fold change in p62 puncta levels relative to DMSO control)
40 | CNCCOCc1cccc2c1ccn2Cc1ccc(F)cc1 [Compound 77] | ++ (>2-fold change in p62 puncta levels relative to DMSO control)
41 | COC(=O)CCOCCNCC(O)COc1cccc2c1ccn2Cc1ccccc1 (stereo not drawn) [Compound 118] | ++ (>2-fold change in p62 puncta levels relative to DMSO control)
42 | CC(C)(C)OC(=O)CCCCCCCCOCCNCc1cc(F)cc2c1ccn2Cc1ccc(Cl)cc1 [Compound 149] | + (<2-fold change in p62 puncta levels relative to DMSO control)
